Data on 3 compounds can be found in US6534507B1 (Fabre-Kramer Pharmaceuticals, Inc., priority 1999, dated 2003).

In data set [1] the target is T1, M4 (Homo sapiens, UniProt P08173).
T1 construct: expressed in transfected cells
T1 sequence (P08173 1-479): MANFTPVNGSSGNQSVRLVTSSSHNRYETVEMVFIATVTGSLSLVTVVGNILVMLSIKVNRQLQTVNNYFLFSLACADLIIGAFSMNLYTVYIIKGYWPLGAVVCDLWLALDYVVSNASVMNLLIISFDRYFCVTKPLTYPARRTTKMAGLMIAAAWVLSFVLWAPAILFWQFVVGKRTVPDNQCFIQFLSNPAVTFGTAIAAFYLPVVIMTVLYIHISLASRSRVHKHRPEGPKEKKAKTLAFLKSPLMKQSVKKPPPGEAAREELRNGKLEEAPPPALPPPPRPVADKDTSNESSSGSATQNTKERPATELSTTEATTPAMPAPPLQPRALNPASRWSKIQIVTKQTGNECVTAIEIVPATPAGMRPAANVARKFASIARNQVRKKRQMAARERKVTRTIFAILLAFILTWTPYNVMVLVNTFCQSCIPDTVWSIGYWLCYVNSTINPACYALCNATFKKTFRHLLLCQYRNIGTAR
As to the kind of experiment: muscarinic receptor binding, M4. Particulars: read-out: pKi M4 (converted). An excerpt: (§1) As known in the art, human monoamine GPCR binding profiles were obtained using heterologously expressed cloned human GPCRs in the binding experiments. Both pKi and IC50 (nM concentration) values were obtained as well as an average value of each from at least three determinations.

Data set [2] has as its target T2, D3 (Homo sapiens, UniProt P35462).
T2 construct: expressed in transfected cells
As to the kind of experiment: dopaminergic receptor binding, D3. The conditions noted are these: result in words. As to the method: as §1
(§2) Dopaminergic receptors D2A, D2B, D3, and D4 were also tested.

Data set [3] deals with T3, Alpha 2C receptor (Homo sapiens, UniProt P18825).
T3 construct: expressed in transfected cells
T3 sequence (P18825 1-462): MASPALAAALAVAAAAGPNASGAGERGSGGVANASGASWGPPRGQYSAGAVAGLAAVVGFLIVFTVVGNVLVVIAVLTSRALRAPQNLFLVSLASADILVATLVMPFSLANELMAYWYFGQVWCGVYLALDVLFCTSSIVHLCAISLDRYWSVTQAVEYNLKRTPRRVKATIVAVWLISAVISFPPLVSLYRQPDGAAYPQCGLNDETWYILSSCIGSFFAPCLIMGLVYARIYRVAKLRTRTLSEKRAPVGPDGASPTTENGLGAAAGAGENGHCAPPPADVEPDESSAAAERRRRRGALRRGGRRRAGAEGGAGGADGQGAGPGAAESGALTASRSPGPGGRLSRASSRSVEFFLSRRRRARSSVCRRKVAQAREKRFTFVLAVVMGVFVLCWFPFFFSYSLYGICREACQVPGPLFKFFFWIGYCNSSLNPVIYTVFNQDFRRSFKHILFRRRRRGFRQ
Kind of data set: alpha-adrenergic receptor binding, Alpha 2C. Particulars: result in words. The method, then:
as §1, §2

In data set [4] the target is T4, Alpha 2B (Homo sapiens, UniProt P18089).
T4 construct: expressed in transfected cells
T4 sequence (P18089 1-450): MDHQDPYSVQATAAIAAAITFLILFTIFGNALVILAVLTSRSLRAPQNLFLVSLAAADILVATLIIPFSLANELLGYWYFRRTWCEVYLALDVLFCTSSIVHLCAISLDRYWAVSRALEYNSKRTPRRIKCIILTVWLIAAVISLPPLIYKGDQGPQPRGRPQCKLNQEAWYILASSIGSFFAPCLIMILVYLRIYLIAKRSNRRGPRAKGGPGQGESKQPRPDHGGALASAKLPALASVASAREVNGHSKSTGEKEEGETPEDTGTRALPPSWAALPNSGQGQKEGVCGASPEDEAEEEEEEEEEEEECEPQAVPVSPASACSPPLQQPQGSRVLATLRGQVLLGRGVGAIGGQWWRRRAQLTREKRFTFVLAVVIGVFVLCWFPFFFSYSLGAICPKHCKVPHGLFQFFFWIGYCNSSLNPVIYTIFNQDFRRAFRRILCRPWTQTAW
Kind of data set: alpha-adrenergic receptor binding, Alpha 2B. The conditions noted are these: result in words. As to the method: as §1, §2

Data set [5] has as its target T5, Alpha 2A (Homo sapiens, UniProt P08913).
T5 construct: expressed in transfected cells
T5 sequence (P08913 1-465): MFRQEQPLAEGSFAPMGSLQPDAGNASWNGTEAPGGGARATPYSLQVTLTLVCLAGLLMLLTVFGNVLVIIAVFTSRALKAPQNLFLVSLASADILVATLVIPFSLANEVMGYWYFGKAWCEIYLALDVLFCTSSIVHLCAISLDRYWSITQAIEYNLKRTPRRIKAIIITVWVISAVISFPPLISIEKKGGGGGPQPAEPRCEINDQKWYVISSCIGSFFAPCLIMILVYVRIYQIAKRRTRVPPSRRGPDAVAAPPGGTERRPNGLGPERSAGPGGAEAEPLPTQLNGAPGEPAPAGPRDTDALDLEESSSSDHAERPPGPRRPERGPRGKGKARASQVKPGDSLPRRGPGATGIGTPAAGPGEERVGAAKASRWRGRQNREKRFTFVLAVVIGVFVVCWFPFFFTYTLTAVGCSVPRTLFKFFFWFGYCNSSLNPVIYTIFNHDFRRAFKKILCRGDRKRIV
Kind of data set: alpha-adrenergic receptor binding, Alpha 2A. The conditions noted are these: result in words. As to the method: as §1, §2

Data set [6] addresses T6, 5-HT1A receptor (Homo sapiens, UniProt P08908).
T6 construct: expressed in transfected cells
T6 sequence (P08908 1-422): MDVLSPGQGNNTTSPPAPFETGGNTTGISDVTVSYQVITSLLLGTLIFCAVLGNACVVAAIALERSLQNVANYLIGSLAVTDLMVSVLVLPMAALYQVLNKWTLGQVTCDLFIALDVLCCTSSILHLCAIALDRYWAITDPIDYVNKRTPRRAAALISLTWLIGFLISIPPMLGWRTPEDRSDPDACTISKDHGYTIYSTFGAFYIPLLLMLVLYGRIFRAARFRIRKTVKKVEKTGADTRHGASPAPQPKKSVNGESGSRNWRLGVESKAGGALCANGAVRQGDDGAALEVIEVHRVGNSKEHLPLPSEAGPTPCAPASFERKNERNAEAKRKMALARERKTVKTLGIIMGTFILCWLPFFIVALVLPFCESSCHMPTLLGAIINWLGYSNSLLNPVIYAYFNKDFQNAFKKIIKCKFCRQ
As to the kind of experiment: human monoamine GPCR binding profile, 5-HT1A.
From the text: as §1

Data set [7] concerns the target T7, M3 (Homo sapiens, UniProt P20309).
T7 construct: expressed in transfected cells
Kind of data set: muscarinic receptor binding, M3. Particulars: read-out: pKi M3 (converted).
From the text: as §1

Data set [8] concerns the target T8, D4 (Homo sapiens, UniProt P21917).
T8 construct: expressed in transfected cells
T8 sequence (P21917 1-419): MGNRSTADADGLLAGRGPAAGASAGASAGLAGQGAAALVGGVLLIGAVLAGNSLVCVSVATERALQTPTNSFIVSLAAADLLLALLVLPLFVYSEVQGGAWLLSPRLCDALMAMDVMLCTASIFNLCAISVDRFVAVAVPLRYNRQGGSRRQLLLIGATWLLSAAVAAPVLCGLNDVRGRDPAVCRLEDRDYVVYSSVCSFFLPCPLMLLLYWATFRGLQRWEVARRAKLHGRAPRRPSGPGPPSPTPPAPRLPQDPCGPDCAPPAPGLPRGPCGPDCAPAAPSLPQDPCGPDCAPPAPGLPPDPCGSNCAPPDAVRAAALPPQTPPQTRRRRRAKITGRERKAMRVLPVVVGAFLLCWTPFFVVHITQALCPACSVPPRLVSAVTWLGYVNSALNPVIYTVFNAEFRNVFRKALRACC
As to the kind of experiment: dopaminergic receptor binding, D4. As to the method: as §1, §2

Data set [9] can be described thus: plasma levels of 3-OH gepirone after administration of gepirone. Format: in vivo. Particulars: human subjects administered a dose of gepirone; FIG. 2; result in words. The method, then:
“Time (H)” represents time after administration.
Each sample corresponds to a 0.5 ml plasma sample, extracted with 6 ml of (2:1) (v/v) hexane:chloroform for 1 hour. After separation by centrifuge, the organic layer is transferred to a 10 ml conical tube and 90 ul of 1% formic acid is added. The tube is vortexed for 10 minutes and centrifuged for 5 minutes. About 80 ul of the formic acid layer is transferred into injection vials for HPLC/MS analysis.

Data set [10] has as its target T9, M1 (Homo sapiens, UniProt P11229).
T9 construct: expressed in transfected cells
T9 sequence (P11229 1-460): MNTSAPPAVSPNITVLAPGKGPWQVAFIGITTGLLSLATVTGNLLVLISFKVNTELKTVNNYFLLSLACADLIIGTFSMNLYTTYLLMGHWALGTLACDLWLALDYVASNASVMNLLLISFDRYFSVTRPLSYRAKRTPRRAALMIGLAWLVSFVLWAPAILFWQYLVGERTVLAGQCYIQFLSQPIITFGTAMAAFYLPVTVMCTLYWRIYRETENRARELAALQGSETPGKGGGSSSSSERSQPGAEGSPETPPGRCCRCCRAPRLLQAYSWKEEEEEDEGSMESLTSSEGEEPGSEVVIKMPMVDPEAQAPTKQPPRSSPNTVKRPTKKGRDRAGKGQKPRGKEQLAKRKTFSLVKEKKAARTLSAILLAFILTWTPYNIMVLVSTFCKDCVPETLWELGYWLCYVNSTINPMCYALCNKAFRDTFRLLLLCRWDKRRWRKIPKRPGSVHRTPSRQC
Kind of data set: muscarinic receptor binding, M1. The conditions noted are these: read-out: pKi M1 (converted).
From the text: as §1

Data set [11] concerns the target T10, D2A (Homo sapiens, UniProt P14416).
T10 construct: expressed in transfected cells
As to the kind of experiment: dopaminergic receptor binding, D2A. Particulars: result in words. As to the method:
as §1, §2

Data set [12] addresses T11, D2B (Homo sapiens, UniProt P14416).
T11 construct: expressed in transfected cells
As to the kind of experiment: dopaminergic receptor binding, D2B. The conditions noted are these: result in words. As to the method: as §1, §2

The target of data set [13] is T12, M2 (Homo sapiens, UniProt P08172).
T12 construct: expressed in transfected cells
T12 sequence (P08172 1-466): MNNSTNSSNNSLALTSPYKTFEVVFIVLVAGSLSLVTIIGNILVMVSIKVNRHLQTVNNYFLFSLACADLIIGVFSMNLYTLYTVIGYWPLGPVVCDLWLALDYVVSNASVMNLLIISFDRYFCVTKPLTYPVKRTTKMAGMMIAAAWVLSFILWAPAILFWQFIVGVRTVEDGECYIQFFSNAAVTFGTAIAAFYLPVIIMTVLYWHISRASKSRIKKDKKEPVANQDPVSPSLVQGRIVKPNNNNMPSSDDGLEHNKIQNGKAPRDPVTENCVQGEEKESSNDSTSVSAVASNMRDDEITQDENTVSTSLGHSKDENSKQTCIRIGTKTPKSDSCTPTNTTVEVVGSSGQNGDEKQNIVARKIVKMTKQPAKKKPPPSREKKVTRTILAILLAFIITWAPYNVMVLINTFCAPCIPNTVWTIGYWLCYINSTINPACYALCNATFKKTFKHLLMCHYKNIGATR
As to the kind of experiment: muscarinic receptor binding, M2. The conditions noted are these: read-out: pKi M2 (converted).
From the text: as §1

The conditions of data set [14]: cited from earlier work; for half-life: result in words.

The structures appear in SMILES notation. “And” between values parts separate entries of the source, which are not always exact repeats. Equal entries are not always repeated.

T7 sequence (P20309 whole entry): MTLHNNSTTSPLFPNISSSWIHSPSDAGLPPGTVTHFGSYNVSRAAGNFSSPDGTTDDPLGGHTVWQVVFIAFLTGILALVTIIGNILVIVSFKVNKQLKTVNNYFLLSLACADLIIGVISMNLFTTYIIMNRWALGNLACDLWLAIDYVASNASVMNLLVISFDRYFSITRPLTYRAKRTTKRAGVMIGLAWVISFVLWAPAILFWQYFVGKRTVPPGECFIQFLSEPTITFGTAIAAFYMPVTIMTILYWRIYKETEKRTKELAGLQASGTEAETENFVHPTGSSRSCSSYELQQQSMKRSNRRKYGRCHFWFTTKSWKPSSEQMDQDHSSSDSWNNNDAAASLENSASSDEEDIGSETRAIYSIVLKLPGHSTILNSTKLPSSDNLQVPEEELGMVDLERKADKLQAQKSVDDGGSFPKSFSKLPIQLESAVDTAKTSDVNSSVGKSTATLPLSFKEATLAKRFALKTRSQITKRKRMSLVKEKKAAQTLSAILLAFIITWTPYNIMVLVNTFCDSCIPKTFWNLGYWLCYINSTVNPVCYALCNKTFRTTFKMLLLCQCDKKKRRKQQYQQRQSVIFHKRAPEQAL
T10 sequence (P14416 whole entry): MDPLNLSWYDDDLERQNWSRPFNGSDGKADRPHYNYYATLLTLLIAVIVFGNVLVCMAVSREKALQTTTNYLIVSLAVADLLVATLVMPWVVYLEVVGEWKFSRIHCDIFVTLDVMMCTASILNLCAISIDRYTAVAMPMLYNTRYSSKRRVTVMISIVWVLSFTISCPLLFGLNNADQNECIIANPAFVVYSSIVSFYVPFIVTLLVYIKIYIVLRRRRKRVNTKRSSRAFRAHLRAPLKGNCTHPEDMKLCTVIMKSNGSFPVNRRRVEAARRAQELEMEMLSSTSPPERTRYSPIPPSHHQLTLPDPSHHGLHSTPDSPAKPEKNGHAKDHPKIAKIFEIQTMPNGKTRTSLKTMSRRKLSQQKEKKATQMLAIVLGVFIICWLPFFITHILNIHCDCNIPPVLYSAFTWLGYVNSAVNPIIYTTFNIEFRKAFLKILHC
T11 sequence (P14416 1-414 isoform P14416-2): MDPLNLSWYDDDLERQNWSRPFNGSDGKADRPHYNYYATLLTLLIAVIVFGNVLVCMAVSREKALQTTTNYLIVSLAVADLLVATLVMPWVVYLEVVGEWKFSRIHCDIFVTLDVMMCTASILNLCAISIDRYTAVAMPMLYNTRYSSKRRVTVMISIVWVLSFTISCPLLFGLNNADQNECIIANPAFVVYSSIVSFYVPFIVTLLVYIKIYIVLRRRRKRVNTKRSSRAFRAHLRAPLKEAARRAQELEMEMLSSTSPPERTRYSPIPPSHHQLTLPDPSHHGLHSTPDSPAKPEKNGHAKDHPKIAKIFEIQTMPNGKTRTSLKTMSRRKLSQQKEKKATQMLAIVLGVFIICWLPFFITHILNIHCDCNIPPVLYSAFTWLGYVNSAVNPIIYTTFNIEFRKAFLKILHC
T2 sequence (P35462 whole entry): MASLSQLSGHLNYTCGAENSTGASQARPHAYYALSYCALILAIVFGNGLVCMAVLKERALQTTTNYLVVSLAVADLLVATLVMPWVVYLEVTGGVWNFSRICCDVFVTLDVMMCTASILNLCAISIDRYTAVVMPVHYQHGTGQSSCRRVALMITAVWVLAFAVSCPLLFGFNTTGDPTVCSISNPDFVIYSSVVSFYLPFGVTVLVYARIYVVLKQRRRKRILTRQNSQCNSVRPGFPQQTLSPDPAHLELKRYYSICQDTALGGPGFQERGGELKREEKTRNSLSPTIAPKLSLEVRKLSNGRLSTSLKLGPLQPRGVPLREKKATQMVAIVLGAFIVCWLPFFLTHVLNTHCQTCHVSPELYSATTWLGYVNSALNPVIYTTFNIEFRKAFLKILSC

On to `CC1(C)CC(=O)N(CCCCN2CCN(c3ncccn3)CC2)C(=O)C1O` (stereo not drawn) [3-OH gepirone, 4,4,-dimethyl-3-hydroxy-1-[4-[4-(2-pyrimidinyl)-1-piperazinyl]butyl]-2,6-piperidinedione], for which the Ki in [1], in data set [7], in data set [10] and in data set [13] was above 45.7 µM each time. For the same compound, the “binding at D3” value in data set [2] is recorded as “insignificant dopaminergic binding”. Further, the “binding at the Alpha 2C receptor” value in data set [3] was “weak binding”. Further, the “affinity at Alpha 2B” value in [4] is recorded as “did not display significant affinity”. Besides, the “affinity at Alpha 2A” value in data set [5] is “did not display significant affinity”. For the same compound, the IC50 is < 100 nM and ~58 nM in data set [6] (cloned human GPCR, average of at least three determinations); around 1420 nM in data set [8]. In data set [6] (in vitro binding studies, result in words), the “selectivity for the 5-HT1A receptor among the serotonergic receptor subtypes” value is on record as “highly selective”. The “plasma levels of 3-OH gepirone” value in [9] is “available quickly and persists in the plasma for extended periods of time”. Also, the “binding at D2A” value in [11] is “insignificant dopaminergic binding”. In addition, the “binding at D2B” value in [12] was “insignificant dopaminergic binding”.
On to `O=C1CC2(CCCC2)CC(=O)N1CCCCN1CCN(c2ncccn2)CC1` [buspirone], for which the half-life result in [14] is given as “very short”.
Take `CC1(C)CC(=O)N(CCCCN2CCN(c3ncccn3)CC2)C(=O)C1` [gepirone, 4-dimethyl-1-[4-[4-(2-pyrimidinyl)-1-piperazinyl]butyl]-2,6-piperidinedione, reference compound]: the Ki in data set [1], in data set [7], in [10] and in [13] was above 45.7 µM throughout. Besides, the bioavailability in data set [14] (delivered orally) is 14-18%. Moreover, the half-life entry in data set [14] was “very short”.
